Biological target: T1, pyruvate dehydrogenase complex (PDHC)
T1 construct: gene PDHA1; native mitochondrial complex isolated from porcine heart; with PDHB (E1 beta) and the other subunits of the complex
Assay: spectrophotometric PDHC kinetics at […] nm, Lineweaver-Burk, Ki from the shift of Km for TPP
Assay type: biochemical, Sus scrofa
Conditions: read-out: Kinetic parameters / Ki

Row | Structure (SMILES) | Ki [nM]
1 | Cc1ncc(C[n+]2csc(CCOP(=O)(O)OP(=O)(O)O)c2C)c(O)n1 [compound 18, oxythiamine pyrophosphate] | 25 ± 15
2 | Cc1ncc(Cc2csc(CCOP(=O)(O)OP(=O)(O)O)c2C)c(N)n1 [compound 15, 3-deazathiamine pyrophosphate] | 2.6 ± 0.9

Source: paper PMC7671598, “Differences in the efficiency of 3-deazathiamine and oxythiamine pyrophosphates as inhibitors of pyruvate dehydrogenase complex and growth of HeLa cells in vitro” (Journal of Enzyme Inhibition and Medicinal Chemistry, 2020)
